By IC50 is commonly meant the midpoint of a concentration-inhibition curve.

The subject of test [1] is AEA cellular uptake (U937 cells). Nature of the test: [3H]-AEA cellular uptake inhibition in U937 cells. It counts as cell-based. The following applies: Homo sapiens, U-937, U937 cells, final 100 nM AEA with 0.5 nM [3H]-AEA, 15 min at 37° C.; read-out: AEA uptake IC50. The method in brief:
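U937 cells (0.5×10^6 per sample) pre-incubated with compound (100 pM–100 μM, triplicates) for 15 min at 37 °C, then given 100 nM AEA including 0.5 nM [3H]-AEA for 15 min. Filtration, washing and scintillation counting of cell-associated radioactivity; IC50 by four-parameter nonlinear regression.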

The target of test [2] is T1, FAAH (Homo sapiens, UniProt O00519).
T1 construct: endogenous in cells; host or cells: U937 cell homogenate
T1 sequence (O00519 1-579): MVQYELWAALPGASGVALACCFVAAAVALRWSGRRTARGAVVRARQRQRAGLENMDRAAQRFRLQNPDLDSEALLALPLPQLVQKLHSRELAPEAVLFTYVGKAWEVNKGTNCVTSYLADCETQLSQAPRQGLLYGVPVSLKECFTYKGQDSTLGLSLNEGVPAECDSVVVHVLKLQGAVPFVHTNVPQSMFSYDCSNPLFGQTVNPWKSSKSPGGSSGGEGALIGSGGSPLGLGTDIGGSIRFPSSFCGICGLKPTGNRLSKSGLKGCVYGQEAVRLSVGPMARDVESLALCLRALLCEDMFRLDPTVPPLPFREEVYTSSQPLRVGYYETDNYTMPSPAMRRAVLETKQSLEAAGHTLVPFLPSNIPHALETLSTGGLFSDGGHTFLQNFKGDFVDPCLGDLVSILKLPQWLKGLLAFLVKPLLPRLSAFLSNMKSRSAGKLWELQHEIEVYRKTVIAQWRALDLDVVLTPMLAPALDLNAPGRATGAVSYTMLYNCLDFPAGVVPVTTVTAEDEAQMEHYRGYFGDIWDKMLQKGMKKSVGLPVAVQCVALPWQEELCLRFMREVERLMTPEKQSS
Nature of the test: FAAH activity: hydrolysis of [3H]-AEA in U937 cell homogenates. The format is biochemical. The following applies: [3H]-AEA hydrolysis, final 100 nM AEA, read-out: FAAH inhibition IC50. The procedure:
Hydrolysis of [^3H]-AEA by FAAH was determined as previously described in cell homogenates of U937 cells (0.18 mg protein) (Omeir et al., 1999, Biochem Biophys Res Commun, 264, 316-20; Mor et al., 2004, J Med Chem, 47, 4998-5008). Protein amounts of cell homogenates corresponded to 0.5×10^6 cells (U937), to assure best possible comparability of IC50 values as used for the AEA cellular uptake assays. URB597 was used as positive control. Protein quantification was performed using a BCA assay (Thermo Scientific). Enzyme activity was assessed by addition of vehicle or compounds in 10 μL DMSO to 490 μL homogenate in 10 mM Tris HCl, 1 mM EDTA, 0.1% (w/v) BSA fatty acid free, pH=8 and incubation for 15 min at 37° C. After, a mixture of AEA plus [ethanolamine-1-^3H]-AEA (0.5 nM) at final 100 nM was added to the homogenates and incubated for 15 min at 37° C. The reaction was stopped by addition of 1 mL ice-cold CHCl3:MeOH (1:1) followed by vigorous vortexing. Phase separation was achieved by centrifugation at 10'000×g at 4° C. for 10 min. Radioactivity of the separated aqueous phase (upper phase) containing [^3H-ethanolamine] or [^3H-glycerol] was measured by liquid scintillation counting on a Tri-Carb 2100 TR liquid scintillation analyzer after addition of 3.5 mL Ultima Gold scintillation cocktail (PerkinElmer Life Sciences). Results are expressed as hydrolysis of tritium substrate in percent of vehicle treated control. IC50 values were calculated by GraphPad®. Data are reported as means of n=3 independent experiments performed in triplicates.

Turning to `CC(C)CN1C(=O)/C(=C/c2ccc3c(c2)OCCO3)S/C1=N\c1ccc(F)cc1` [24_B_X, (2Z,5Z)-2-(4-fluorophenylimino)-5-((2,3-dihydrobenzo[b][1,4]dioxin-6-yl)methylene)-3-isobutylthiazolidin-4-one], the IC50 is 162 nM in test [1] and over 100000 nM in test [2].
In the same order, the values of `O=C1/C(=C/c2ccc3ncsc3c2)S/C(=N\c2ccccc2)N1c1ccccc1` [compound 32, (2Z,5Z)-5-((benzo[d]thiazol-6-yl)methylene)-3-phenyl-2-(phenylimino)thiazolidin-4-one] are 291 nM and over 100000 nM.
In the same order, the values of `CC(C)CN1C(=O)/C(=C/c2ccc3c(c2)OCCO3)S/C1=N\c1ccccc1` [24_N_X, (2Z,5Z)-5-((2,3-dihydrobenzo[b][1,4]dioxin-6-yl)methylene)-3-isobutyl-2-(phenylimino)thiazolidin-4-one] are 172 nM and over 100000 nM.
In the same order, the values of `COc1ccc(/N=C2\S/C(=C\c3ccc4c(c3)OCCO4)C(=O)N2c2ccccc2)cc1` [24_F_N, (2Z,5Z)-2-(4-methoxyphenylimino)-5-((2,3-dihydrobenzo[b][1,4]dioxin-6-yl)methylene)-3-phenylthiazolidin-4-one] are 939 nM and over 100000 nM.
In the case of `O=C1/C(=C/c2ccc3c(c2)OCCO3)S/C(=N\Cc2ccc(F)cc2)N1c1ccc(Cl)cc1` [24_P_L, (2Z,5Z)-2-(4-fluorobenzylimino)-3-(4-chlorophenyl)-5-((2,3-dihydrobenzo[b][1,4]dioxin-6-yl)methylene)thiazolidin-4-one], the IC50 in test [1] is 51 nM; in test [2], 617 nM.
The matching figures for `Cc1ccc(N2C(=O)/C(=C/c3ccc4c(c3)OCCO4)S/C2=N\Cc2ccc(F)cc2)cc1` [24_P_A, (2Z,5Z)-2-(4-fluorobenzylimino)-5-((2,3-dihydrobenzo[b][1,4]dioxin-6-yl)methylene)-3-p-tolylthiazolidin-4-one]: 176 nM and 1510 nM.
In the same order, the values of `COc1ccc(C/N=C2\S/C(=C\c3ccc4c(c3)OCCO4)C(=O)N2c2ccccc2)cc1` [24_Q_N, (2Z,5Z)-2-(4-methoxybenzylimino)-5-((2,3-dihydrobenzo[b][1,4]dioxin-7-yl)methylene)-3-phenylthiazolidin-4-one] are 373 nM and 437 nM.
As to `CC(C)CN1C(=O)/C(=C/c2ccc3c(c2)OCCO3)S/C1=N\Cc1ccc(F)cc1` [24_P_X, (2Z,5Z)-2-(4-fluorobenzylimino)-5-((2,3-dihydrobenzo[b][1,4]dioxin-6-yl)methylene)-3-isobutylthiazolidin-4-one], the concentration for half-maximal inhibition (IC50) is 509 nM in test [1] and 2630 nM in test [2].
The matching figures for `COc1ccc(/N=C2\S/C(=C\c3ccc4[nH]cnc4c3)C(=O)N2c2ccccc2)cc1` [04_F_N, (2Z,5Z)-5-((1H-benzo[d]imidazol-5-yl)methylene)-2-(4-methoxyphenylimino)-3-phenylthiazolidin-4-one]: 164 nM and over 100000 nM.
The matching figures for `O=C1/C(=C/c2ccc3c(c2)OCCO3)S/C(=N\Cc2ccc(F)cc2)N1C1CCCCC1` [24_P_I, (2Z,5Z)-2-(4-fluorobenzylimino)-3-cyclohexyl-5-((2,3-dihydrobenzo[b][1,4]dioxin-6-yl)methylene)thiazolidin-4-one]: 87 nM and 170 nM.
The matching figures for `O=C1/C(=C/c2ccc3c(c2)OCCO3)S/C(=N\Cc2ccc(F)cc2)N1c1ccccc1` [24_P_N, (2Z,5Z)-2-(4-fluorobenzylimino)-5-((2,3-dihydrobenzo[b][1,4]dioxin-6-yl)methylene)-3-phenylthiazolidin-4-one]: 530 nM and 912 nM.
For the compound `Cc1ccc(/N=C2\S/C(=C\c3ccc4[nH]cnc4c3)C(=O)N2c2ccccc2)cc1` [04_A_N, (2Z,5Z)-5-((1H-benzo[d]imidazol-5-yl)methylene)-2-(p-tolylimino)-3-phenylthiazolidin-4-one], the concentration for half-maximal inhibition (IC50) in test [1] is 107 nM; in test [2], over 100000 nM.
The matching figures for `COc1ccc(N2C(=O)/C(=C/c3ccc4[nH]cnc4c3)S/C2=N\Cc2ccccc2)cc1` [04_C_F, (2Z,5Z)-5-((1H-benzo[d]imidazol-5-yl)methylene)-2-(benzylimino)-3-(4-methoxyphenyl)thiazolidin-4-one]: 484 nM and over 10000 nM.
In the same order, the values of `O=C1/C(=C/c2ccc3c(c2)OCCO3)S/C(=N\c2ccc(F)cc2)N1C1CCCCC1` [24_B_I, (2Z,5Z)-2-(4-fluorophenylimino)-3-cyclohexyl-5-((2,3-dihydrobenzo[b][1,4]dioxin-6-yl)methylene)thiazolidin-4-one] are 141 nM and over 100000 nM.
In the same order, the values of `COc1ccc(C/N=C2\S/C(=C\c3ccc4c(c3)OCCO4)C(=O)N2C2CCCCC2)cc1` [24_Q_I, (2Z,5Z)-2-(4-methoxybenzylimino)-3-cyclohexyl-5-((2,3-dihydrobenzo[b][1,4]dioxin-6-yl)methylene)thiazolidin-4-one] are 35 nM and 37 nM.
As for `O=C1/C(=C/c2ccc3c(c2)OCCO3)S/C(=N\Cc2ccccc2)N1c1ccccc1` [24_C_N, (2Z,5Z)-2-(benzylimino)-5-((2,3-dihydrobenzo[b][1,4]dioxin-6-yl)methylene)-3-phenylthiazolidin-4-one], the IC50 in test [1] was 170 nM; in test [2], 1590 nM.
On to `O=C1/C(=C/c2ccc3[nH]ccc3c2)S/C(=N\Cc2ccccc2Cl)N1c1ccccc1` [03_T_N, (2Z,5Z)-5-((1H-indol-5-yl)methylene)-2-(2-chlorobenzylimino)-3-phenylthiazolidin-4-one], for which the IC50 in test [1] was 262 nM; in test [2] it was over 100000 nM.
In the same order, the values of `COc1ccc(C/N=C2\S/C(=C\c3ccc4c(c3)OCCO4)C(=O)N2c2ccc(Cl)cc2)cc1` [24_Q_L, (2Z,5Z)-2-(4-methoxybenzylimino)-3-(4-chlorophenyl)-5-((2,3-dihydrobenzo[b][1,4]dioxin-6-yl)methylene)thiazolidin-4-one] are 85 nM and 813 nM.
The matching figures for `Cc1ccc(/N=C2\S/C(=C\c3ccc4c(c3)OCCO4)C(=O)N2c2ccc(C)cc2)cc1` [24_A_A, (2Z,5Z)-2-(p-tolylimino)-5-((2,3-dihydrobenzo[b][1,4]dioxin-6-yl)methylene)-3-p-tolylthiazolidin-4-one]: 286 nM and over 100000 nM.
In the case of `O=C1/C(=C/c2ccc3[nH]cnc3c2)S/C(=N\c2ccc(F)cc2)N1C1CCCCC1` [04_B_I, (2Z,5Z)-5-((1H-benzo[d]imidazol-5-yl)methylene)-2-(4-fluorophenylimino)-3-cyclohexylthiazolidin-4-one], the IC50 in test [1] was 132 nM; in test [2] it was 22900 nM.
The matching figures for `O=C1/C(=C/c2ccc3[nH]ccc3c2)S/C(=N\Cc2ccc(F)cc2)N1c1ccccc1` [03_P_N, (2Z,5Z)-5-((1H-indol-5-yl)methylene)-2-(4-fluorobenzylimino)-3-phenylthiazolidin-4-one]: 403 nM and under 10000 nM.

The values above are taken from patent publication US10155754B2, “Substituted 2-imino-1,3-thiazolidin-4-ones as N-arachidonoylethanolamine cellular uptake inhibitors” (UNIVERSITAT BERN, priority 2014, dated 2018).
